Results on 3 molecules are retold here after patent US7642378B2, “Lipid lowering biphenylcarboxamides” (Janssen Pharmaceutica NV, priority 2001, dated 2010).

Series [1] concerns Secretion of ApoB. Briefly: Quantification of the secretion of ApoB. The format is cell-based. To be noted: HepG2 cells, 24 hours of incubation with test compound. On the procedure: HepG2 cells were cultured in 24-well plates in MEM Rega 3 containing 10% fetal calf serum. At 70% confluency, the medium was changed and the test compound or carrier (DMSO, 0.4% final concentration) was added. After 24 hours of incubation, the medium was transferred to Eppendorf tubes and cleared by centrifugation. A sheep antibody directed against either apoB was added to the supernatant and the mixture was kept at 8° C. for 24 hours. Then, rabbit anti-sheep antibody was added and the immune complex was allowed to precipitate for 24 hours at 8° C. The immunoprecipitate was pelleted by centrifugation for 25 minutes at 1320 g and washed twice with a buffer containing 40 mM Mops, 40 mM NaH2PO4, 100 mM NaF, 0.2 mM DTT, 5 mM EDTA, 5 mM EGTA, 1% Triton-X-100, 0.5% sodium deoxycholate (DOC), 0.1% SDS, 0.2 μM leupeptin and 0.2 μM PMSF. Radioactivity in the pellet was quantified by liquid scintillation counting.
Resulting IC50 values are enumerated in Table C. 1.

SMILES strings stand for the structures.

By melting point is commonly meant the temperature, or range, at which the solid turns liquid. Molecule `COC(=O)COC(=O)C(c1ccccc1)N1CCN(c2ccc(NC(=O)c3ccccc3-c3ccc(C(F)(F)F)cc3)cc2)CC1` (stereo not drawn) [Co. No. 14, 2-methoxy-2-oxoethyl α-phenyl-4-[4-[[[4′-(trifluoromethyl)[1,1′-biphenyl]-2-yl]carbonyl]amino]phenyl]-1-piperazineacetate] came in with a melting point of 106 °C.

With `COC(=O)COC(=O)C(c1ccccc1)N1CCN(c2ccc(NC(=O)c3ccccc3-c3ccc(C(F)(F)F)cc3)cc2)CC1` (stereo not drawn) [compound 14], the “pIC50 values (=−log IC50 value)” value in series [1] amounted to 6.591.

`COC(=O)CNC(=O)C(c1ccccc1)C1CCN(c2ccc(NC(=O)c3ccccc3-c3ccc(C(C)(C)C)cc3)cc2)CC1` (stereo not drawn) [Co. No. 145, (B)—N-[[1-[4-[[[4′-(1,1-dimethylethyl)[1,1′-biphenyl]-2-yl]carbonyl]amino]phenyl]-4-piperidinyl]phenylacetyl]-glycine methyl ester] showed a melting point of 119.9 to 120 °C.
